{"source": "patent US4689333A", "about": "“2-(2-pyridylmethylthio (sulfinyl)) benzimidazoles” (Takeda Chemical Industries, Ltd., priority 1984, dated 1987)", "key": {"[1]": {"test": "Anti-ulcer action: indomethacin-induced gastric antral ulcer in rats", "type": "in vivo, Male Sprague-Dawley rats", "settings": "Rattus norvegicus, po, 5 h, p.o., 30 min before indomethacin 30 mg/kg s.c., 6 rats per group, doses 1, 3, 10 and 30 mg/kg, read-out: Anti-ulcer action ID50", "from_the_text": "As the models of gastrointestinal ulcers, restraint and water-immersion stress-induced ulcer, indomethacin-induced ulcer and ethanol-induced gastric mucosal lesions have been used. However, as a model mimicking human gastric ulcer, indomethacin-induced gastric antral ulcer was reported in \"Gastroenterology\" (Satoh et al. 81, p. 719, 1981), which is considered to be of value as an experimental model. Therefore, the following are data of anti-ulcer actions of the object compounds (I) and of some representable known compounds, on the ulcer model in the above-mentioned literature reference.\nMale Sprague-Dawley rats of 7-weeks old were fasted for 24 hours. These animals were administered test compounds into stomach by using a gastric tube. After 30 minutes, indomethacin, 30 mg/kg subcutaneously, was administered. During 30-90 minutes after the administration of indomethacin, these animals had free access to chow pellets (Japan Clea, CE-2). At 5 hours after the administration of indomethacin, 1 ml of 1% Evans blue was injected to the animals via the tail vein, followed by sacrificing these animals with carbon dioxide gas. The stomach was removed together with the lower part of esophagus and the duodenum. The esophagus was clipped, 10 ml of 1% formalin solution was instilled into the stomach from the duodenum, and then the duodenum was clipped. The whole stomach was immersed in 1% formalin solution. About 15 minutes later, the stomachs were opened along the greater curvature. The area of the lesions which occurred in the gastric antral mucosa was measured under a dissecting microscope with a square-grid eye piece (x10). The sum total of the individual lesions in each animal was measured, and the average value per group was calculated. Based on the difference between the average value of each group and that of the control group, the inhibition rate was determined. The test compound and indomethahacin were suspended in a 5% gum arabic solution, respectively and administered in a volume of 2 ml/kg.\n^(a) Using 6 rats per group, each of the test compounds was\nadministered in a dose of 1, 3, 10 and 30 mg/kg to determine ID50."}, "[2]": {"test": "Toxicity, oral administration to mice", "type": "in vivo", "settings": "even in a dose of 2000 mg/kg"}}, "data": [{"smiles": "[O-][S+](Cc1cc(OCC(F)(F)F)ccn1)c1nc2ccccc2[nH]1", "note": "(centres unmarked) [R^1=H, R^2=H, R^3=H, R^4=CH2 CF3, n=1]", "values": [{"measurement": "ED50", "setting": "[1]", "value": 2.4, "unit": "mg/kg"}]}, {"smiles": "[O-][S+](Cc1cc(OCC(F)(F)C(F)F)ccn1)c1nc2ccccc2[nH]1", "note": "(centres unmarked)", "values": [{"measurement": "ED50", "setting": "[1]", "value": 1.3, "unit": "mg/kg"}]}, {"smiles": "Cc1c(OCC(F)(F)F)ccnc1C[S+]([O-])c1nc2ccccc2[nH]1", "note": "(centres unmarked) [R^1=H, R^2=CH3, R^3=H, R^4=CH2 CF3, n=1, 2-[3methyl-4-(2,2,2-trifluoroethoxy)-pyrid-2-yl]methylsulfinylbenzimidazo]", "values": [{"measurement": "ED50", "setting": "[1]", "value": "< 1", "unit": "mg/kg"}]}, {"smiles": "[O-][S+](Cc1cc(OCC(F)(F)C(F)(F)F)ccn1)c1nc2ccccc2[nH]1", "note": "(centres unmarked)", "values": [{"measurement": "ED50", "setting": "[1]", "value": 1.3, "unit": "mg/kg"}]}, {"smiles": "Cc1c(OCC(F)(F)C(F)F)ccnc1C[S+]([O-])c1nc2ccccc2[nH]1", "note": "(centres unmarked)", "values": [{"measurement": "ED50", "setting": "[1]", "value": "< 1", "unit": "mg/kg"}]}, {"smiles": "Cc1c(OCC(F)(F)C(F)(F)F)ccnc1CSc1nc2ccccc2[nH]1", "note": "[2-[3-methyl-4-(2,2,3,3,3-pentafluoropropoxy)-pyrid-2-yl]methylthiobenzimidazole]", "values": [{"measurement": "ED50", "setting": "[1]", "value": 3.7, "unit": "mg/kg"}]}, {"smiles": "Cc1c(OCC(F)(F)C(F)(F)F)ccnc1C[S+]([O-])c1nc2ccccc2[nH]1", "note": "(centres unmarked) [2-[3-methyl-4-(2,2,3,3,3-pentafluoropropoxy)pyrid-2-yl]methylsulfinylbenzimidazole]", "values": [{"measurement": "ED50", "setting": "[1]", "value": "< 1", "unit": "mg/kg"}, {"measurement": "fatal effect on oral administration", "setting": "[2]", "value": "no fatal effect"}]}]}
